Source: patent US11999704B1, “1-(2-hydroxybenzylideneamino)-5-phenylimidazolidine-2,4-dione as an antimicrobial compound” (KING FAISAL UNIVERSITY, priority 2023, dated 2024)

Key:
Bacillus Cereus = assay: Agar plate disc-diffusion, antibacterial activity (inhibition zone); format: cell-based; conditions: nutrient agar, 37° C., 48 hours, DMSO zone subtracted; for inhibition zone, Bacillus Cereus, B: B = concentration of comp. = 30.000 μL; for inhibition zone, Bacillus Cereus, C: C = concentration of comp. = 50,000 μL
Experimental: (§1) The agar plate disc-diffusion method was applied. Sterilized filter papers (6 mm in diameter) were wetted with 10 μL of a solution of 1-(2-hydroxybenzylideneamino)-5-phenylimidazolidine-2,4-dione (4) to be tested, containing 10 mg/mL in DMSO, and the discs were allowed to air dry. The discs were then placed onto the surface of agar plates (nutrient agar for bacteria and Sabouraud's dextrose agar for fungi) seeded with the test organism. Each plate contained 15 mL of the agar medium, previously seeded with 0.2 mL of the broth culture of each organism pregrown for 18 hours. The plates were incubated at 37° C. for 48 hours, and 72 hours for fungi. The inhibition zones was measured in millimeter. Discs impregnated with DMSO were used as a control, and its inhibition zone was subtracted from the tested compound actual inhibition zone.
(§2) The results of the antimicrobial testing can be observed in Tables 1 and 2, below, with ciprofloxacin serving as a reference.

Escherichia coli = assay: as above; format: cell-based; conditions: nutrient agar, 37° C., 48 hours, DMSO zone subtracted; for inhibition zone, Escherichia coli, A: A = concentration of comp. = 10,000 μL; for inhibition zone, Escherichia coli, B: B = concentration of comp. = 30.000 μL; for inhibition zone, Escherichia coli, C: C = concentration of comp. = 50,000 μL
Experimental: as §1, §2

Pseudomonas aeruginosa = assay: as above; format: cell-based; conditions: nutrient agar, 37° C., 48 hours, DMSO zone subtracted; for inhibition zone, Pseudomonas aeruginosa, A: A = concentration of comp. = 10,000 μL; for inhibition zone, Pseudomonas aeruginosa, B: B = concentration of comp. = 30.000 μL; for inhibition zone, Pseudomonas aeruginosa, C: C = concentration of comp. = 50,000 μL
Experimental: as §1, §2

Staphylococcus aureus = assay: as above; format: cell-based; conditions: nutrient agar, 37° C., 48 hours, DMSO zone subtracted; for inhibition zone, Staphylococcus aureus, A: A = concentration of comp. = 10,000 μL; for inhibition zone, Staphylococcus aureus, B: B = concentration of comp. = 30.000 μL; for inhibition zone, Staphylococcus aureus, C: C = concentration of comp. = 50,000 μL
Experimental: as §1, §2

Aspergillus flavus = assay: Agar plate disc-diffusion, antifungal activity (inhibition zone); format: cell-based; conditions: Sabouraud's dextrose agar, 37° C., 72 hours, DMSO zone subtracted; for inhibition zone, Aspergillus flavus, A: A = concentration of comp. = 10,000 μL; for inhibition zone, Aspergillus flavus, B: B = concentration of comp. = 30.000 μL; for inhibition zone, Aspergillus flavus, C: C = concentration of comp. = 50,000 μL
Experimental: as §1, §2

[1] = tested on: Chrysosporium keratinophilum; assay: as above; format: cell-based; conditions: Sabouraud's dextrose agar, 37° C., 72 hours, DMSO zone subtracted; for inhibition zone, Chrysosporium keratinophilum, A: A = concentration of comp. = 10,000 μL; for inhibition zone, Chrysosporium keratinophilum, B: B = concentration of comp. = 30.000 μL; for inhibition zone, Chrysosporium keratinophilum, C: C = concentration of comp. = 50,000 μL
Experimental: as §1, §2

| SMILES | inhibition zone, Bacillus Cereus, A (Bacillus Cereus) | inhibition zone, Bacillus Cereus, B (Bacillus Cereus) | inhibition zone, Bacillus Cereus, C (Bacillus Cereus) | inhibition zone, Escherichia coli, A (Escherichia coli) | inhibition zone, Escherichia coli, B (Escherichia coli) | inhibition zone, Escherichia coli, C (Escherichia coli) | inhibition zone, Pseudomonas aeruginosa, A (Pseudomonas aeruginosa) | inhibition zone, Pseudomonas aeruginosa, B (Pseudomonas aeruginosa) | inhibition zone, Pseudomonas aeruginosa, C (Pseudomonas aeruginosa) | inhibition zone, Staphylococcus aureus, A (Staphylococcus aureus) | inhibition zone, Staphylococcus aureus, B (Staphylococcus aureus) | inhibition zone, Staphylococcus aureus, C (Staphylococcus aureus) | inhibition zone, Aspergillus flavus, A (Aspergillus flavus) | inhibition zone, Aspergillus flavus, B (Aspergillus flavus) | inhibition zone, Aspergillus flavus, C (Aspergillus flavus) | inhibition zone, Chrysosporium keratinophilum, A [1] | inhibition zone, Chrysosporium keratinophilum, B [1] | inhibition zone, Chrysosporium keratinophilum, C [1] | melting point |
| --- | --- | --- | --- | --- | --- | --- | --- | --- | --- | --- | --- | --- | --- | --- | --- | --- | --- | --- | --- |
| O=C(O)c1cn(C2CC2)c2cc(N3CCNCC3)c(F)cc2c1=O [Cip., ciprofloxacin, reference compound] | 29 millimeter | 30 millimeter | 42 millimeter | 30 millimeter | 39 millimeter | 60 millimeter | 29 millimeter | 30 millimeter | 53 millimeter | 43 millimeter | 44 millimeter | 53 millimeter | 29 millimeter | 30 millimeter | 42 millimeter | 29 millimeter | 30 millimeter | 53 millimeter |  |
| O=C1NC(=O)N(/N=C/c2ccccc2O)C1c1ccccc1 (stereo not shown) [Compound 4, 1-(2-hydroxybenzylideneamino)-5-phenylimidazolidine-2,4-dione] | 23 millimeter | 27 millimeter | 35 millimeter | 27 millimeter | 36 millimeter | 49 millimeter | 20 millimeter | 26 millimeter | 37 millimeter | 15 millimeter | 19 millimeter | 27 millimeter | 24 millimeter | 28 millimeter | 38 millimeter | 27 millimeter | 29 millimeter | 48 millimeter | 161 to 163 °C |
